Reference: patent US20240368153A1, “Aminopyridine-based MTA-Cooperative PRMT5 Inhibitors” (Mirati Therapeutics, Inc., priority 2021, published 2024)
pIC50, pKd: −log10 of the molar value.

How the values were obtained:
PRMT5/MEP50 complex [1] = target: T1, PRMT5/MEP50 complex (Homo sapiens (Human), UniProt O14744); test: PRMT5:MEP50 HotSpot Assay; format: biochemical; details: read-out: IC50 + 2 μM MTA, full-length histone H2A, presence of 2 μM MTA
Method: The assay uses recombinant full-length histone H2A as the PRMT5 substrate. Enzymatic transfer of the tritiated methyl group from S-adenosyl-L-[methyl-3H]methionine to the histone H2A protein generated a radiolabeled histone […] in a scintillation counter to determine the activity of PRMT5 enzyme in the presence and absence of compound. […] Briefly, compounds of the present invention were solubilized in 100% DMSO at a highest concentration of 10 mM. […] Control samples lacking compound, PRMT5/MEP50 complex or various reaction components also were prepared and processed in parallel with compound test samples. SAH was used as a positive control for assay validation. To measure PRMT5 inhibitory activity. 1 nM PRMT5/MEP50 complex (Reaction Biology Corporation) was preincubated with test compound in assay buffer containing 5 μM full-length histone H2A for 20 min at room temperature. The enzymatic reaction was initiated by adding 1 μM tritiated S-adenosyl methionine (final concentration) and the reaction was allowed to proceed for 60 min. The reaction was stopped and transferred to filter paper for detection. The amount of tritiated H2A in each sample was determined using a scintillation counter.

[2] = target: recombinant human dual expressed Avi PRMT5/His-MEP50 protein (Homo sapiens (Human), UniProt O14744); test: HTRF binding assay in presence of MTA; details: 30 μM MTA
Method: The PRMT5 binding activity of compounds of the present invention was determined using an HTRF binding assay or SPR assay.
A recombinant human dual expressed Avi PRMT5/His-MEP50) protein (corresponding to amino acids for PRMT5 2-637, and 2-342 for MEP50 expressed in baculovirus) was incubated with target fragments in final buffer (25 mM ADA pH 7.2, 30 μM MTA, 1 mM TCEP, 50 mM NaCl, 0.002% Tween, 5 nM proprietary Tracer binding compound prepared in-house), overnight at 2-8° C. After overnight incubation the binding is monitored after the addition of 0.5 nM Anti-His-Tb (Cisbio) after 1 hr incubation at RT (˜20-24 hrs total binding time). The HTRF signal was measured using a Clariostar reader (BMG) excitation filter (Ex Tr), dichroic filter (LP TP) and emission filters (F 665-10 and F 620-10) manufacturer's instructions. The HTRF ratio was calculated using the formula: [emission 665/emission 620]*10000.

[3] = target: PRMT5•MTA (biotinylated PRMT5-MEP50) (Homo sapiens (Human), UniProt O14744); test: SPR binding assay, MTA running buffer; details: 20 μM MTA running buffer
Method: (§1) SPR screening was performed in MTA running buffer (25 mM Bicine pH 7.6, 100 mM NaCl, 1 mM TCEP, 20 μM MTA, 0.05% Tween-20 and 2% DMSO). The biotinylated PRMT5-MEP50 surface was equilibrated with MTA running buffer for 12 hours prior to the start. […] Subsequently, compound titration was repeated in SAM-running buffer (25 mM Bicine pH 7.6, 100 mM NaCl, 1 mM TCEP, 20 μM SAM, 0.05% Tween-20, and 2% DMSO). […] After double referencing, the steady-state response was extracted for each fragment concentration and was fit to the Langmuir isotherm equation to determine the equilibrium dissociation constant (KD).

[4] = target: PRMT5•SAM (biotinylated PRMT5-MEP50) (Homo sapiens (Human), UniProt O14744); test: SPR binding assay, SAM running buffer; details: 20 μM SAM running buffer
Method: as §1

PRMT5/MEP50 complex [5] = target: T1, PRMT5/MEP50 complex; test: PRMT5:MEP50 FlashPlate Assay; format: biochemical
Method: The PRMT5 inhibitory activity of compounds of the present invention was determined using a PRMT5:MEP50 FlashPlate Assay (Reaction Biology Corporation).
The assay uses purified human, PRMT5 enzyme to convert S-adenosyl-L-[methyl-^3H]methionine plus histone H4 L-arginine to S-adenosyl-L-homocysteine plus histone H4 [methyl-^3H]-L-arginine. The assay was carried out using Streptavidin-coated FlashPlates (Perkin Elmer), which contained a scintillant embedded in the plastic of the plate. The histone H4 peptide substrate was conjugated with biotin, which binds to the streptavidin-coated well of the plate, placing the H4 peptide in close proximity to the side well and the scintillant. The transfer of the tritiated methyl group from S-adenosyl-L-[methyl-^3H]methionine to the bound histone H4 peptide generated a radiolabeled histone H4, which was quantitated by measuring in a scintillation counter to determine the activity of PRMT5 enzyme in the presence and absence of compound. […] Briefly, compounds of the present invention were solubilized in 100% DMSO at a highest concentration of 10 mM. For IC, determinations, the initial starting concentration for the serial dilutions of each compound was 50 μM. Control samples lacking compound, PRMT5/MEP50 complex or various reaction components also were prepared and processed in parallel with compound test samples. SAH was used as a positive control for assay validation. To measure PRMT5 inhibitory activity, 3 nM PRMT5/MEP50 complex (Reaction Biology Corporation) was preincubated with test compound in assay buffer containing 40 nM histone H4 peptide (amino acids 1-15)-Biotin conjugate for 20 min at room temperature. The enzymatic reaction was initiated by adding 1 μM tritiated S-adenosyl methionine (final concentration) and the reaction is allowed to proceed for 20 min. The reaction was stopped and the amount of bound, tritiated H4 peptide in each sample was determined using a scintillation counter. The IC50 value for each compound was calculated from each 10-point dose-response curve for samples plus and minus MTA using GraphPad Prism software and the results for exemplary compounds of Formula (I) is shown in Table 9a.

[6] = histone H4 peptide, absence of MTA, read-out: IC50
[7] = read-out: IC50 + 2 μM MTA, histone H4 peptide, presence of 2 μM MTA

Sequence of PRMT5•MTA (biotinylated PRMT5-MEP50) (O14744 whole entry, the tested form may be a part): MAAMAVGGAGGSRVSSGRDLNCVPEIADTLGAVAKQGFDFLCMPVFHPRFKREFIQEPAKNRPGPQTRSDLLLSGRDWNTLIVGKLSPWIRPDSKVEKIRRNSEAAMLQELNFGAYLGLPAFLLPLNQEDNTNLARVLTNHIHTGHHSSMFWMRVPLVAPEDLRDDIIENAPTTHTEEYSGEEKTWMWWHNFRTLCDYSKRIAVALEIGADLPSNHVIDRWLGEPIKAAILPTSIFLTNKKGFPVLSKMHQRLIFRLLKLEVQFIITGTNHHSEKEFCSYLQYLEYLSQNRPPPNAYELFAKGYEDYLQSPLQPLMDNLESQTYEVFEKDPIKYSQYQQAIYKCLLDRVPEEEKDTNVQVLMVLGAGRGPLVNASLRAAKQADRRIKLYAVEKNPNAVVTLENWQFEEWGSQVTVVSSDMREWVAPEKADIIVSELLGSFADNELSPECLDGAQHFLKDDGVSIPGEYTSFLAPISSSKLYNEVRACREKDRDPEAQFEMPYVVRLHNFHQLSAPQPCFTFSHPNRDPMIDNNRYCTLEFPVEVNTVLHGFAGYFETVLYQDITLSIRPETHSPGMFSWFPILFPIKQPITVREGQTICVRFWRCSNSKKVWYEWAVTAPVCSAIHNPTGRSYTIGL
Sequence of PRMT5•MTA (biotinylated PRMT5-MEP50) (Q9BQA1 whole entry partner, the tested form may be a part): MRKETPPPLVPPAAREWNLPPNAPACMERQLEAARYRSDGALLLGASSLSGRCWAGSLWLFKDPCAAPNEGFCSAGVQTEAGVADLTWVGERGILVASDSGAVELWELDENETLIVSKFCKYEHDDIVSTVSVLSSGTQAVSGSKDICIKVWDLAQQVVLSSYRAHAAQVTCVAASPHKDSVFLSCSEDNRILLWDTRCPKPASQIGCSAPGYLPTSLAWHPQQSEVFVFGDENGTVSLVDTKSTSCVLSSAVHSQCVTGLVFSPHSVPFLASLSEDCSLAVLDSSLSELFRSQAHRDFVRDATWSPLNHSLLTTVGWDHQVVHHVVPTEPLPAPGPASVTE
Sequence of PRMT5•SAM (biotinylated PRMT5-MEP50) (O14744 whole entry): as the sequence (O14744 whole entry, the tested form may be a part) above
Sequence of PRMT5•SAM (biotinylated PRMT5-MEP50) (Q9BQA1 whole entry partner): as the sequence (Q9BQA1 whole entry partner, the tested form may be a part) above
T1 sequence (O14744 whole entry): as the sequence (O14744 whole entry, the tested form may be a part) above
T1 sequence (Q9BQA1 whole entry partner): as the sequence (Q9BQA1 whole entry partner, the tested form may be a part) above
Sequence of recombinant human dual expressed Avi PRMT5/His-MEP50 protein (O14744 2-637): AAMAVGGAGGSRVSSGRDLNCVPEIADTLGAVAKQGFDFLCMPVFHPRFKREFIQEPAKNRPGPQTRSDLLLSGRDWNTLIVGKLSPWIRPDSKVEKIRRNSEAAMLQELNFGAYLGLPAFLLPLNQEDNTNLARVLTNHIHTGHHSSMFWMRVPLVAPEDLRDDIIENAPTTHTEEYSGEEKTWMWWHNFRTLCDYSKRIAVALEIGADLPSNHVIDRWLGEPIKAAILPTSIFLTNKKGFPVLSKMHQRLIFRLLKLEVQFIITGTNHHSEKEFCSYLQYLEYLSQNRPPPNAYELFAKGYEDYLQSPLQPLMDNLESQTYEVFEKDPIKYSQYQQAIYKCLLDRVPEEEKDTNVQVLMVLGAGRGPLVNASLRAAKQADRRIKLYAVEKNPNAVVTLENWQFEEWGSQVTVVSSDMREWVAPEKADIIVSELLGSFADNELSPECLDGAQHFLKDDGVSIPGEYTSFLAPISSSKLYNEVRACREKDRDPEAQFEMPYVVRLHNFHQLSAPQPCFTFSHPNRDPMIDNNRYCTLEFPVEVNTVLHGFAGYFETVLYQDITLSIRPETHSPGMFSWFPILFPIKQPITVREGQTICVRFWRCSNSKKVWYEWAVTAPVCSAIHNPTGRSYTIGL
Sequence of recombinant human dual expressed Avi PRMT5/His-MEP50 protein (Q9BQA1 2-342 partner): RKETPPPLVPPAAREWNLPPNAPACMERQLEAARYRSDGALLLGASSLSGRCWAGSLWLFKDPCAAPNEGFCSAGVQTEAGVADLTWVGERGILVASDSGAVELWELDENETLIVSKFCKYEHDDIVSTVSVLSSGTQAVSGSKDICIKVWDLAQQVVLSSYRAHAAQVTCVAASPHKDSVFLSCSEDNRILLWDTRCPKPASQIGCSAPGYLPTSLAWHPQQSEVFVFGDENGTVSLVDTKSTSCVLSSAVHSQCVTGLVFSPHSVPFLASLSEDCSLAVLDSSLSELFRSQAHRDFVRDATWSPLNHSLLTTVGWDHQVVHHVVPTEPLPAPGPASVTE

SMILES: Cc1cc(N)nc2cc(C(=O)N(Cc3ccc(Br)cn3)[C@@H](C)c3ncccn3)cnc12 [Example 10-11, 6-amino-N-[(5-bromo-2-pyridyl)methyl]-8-methyl-N-[(1S)-1-pyrimidin-2-ylethyl]-1,5-naphthyridine-3-carboxamide]
- pIC50 (PRMT5/MEP50 complex [1]): 4.98

SMILES: CC(=O)N(Cc1cnc2c(C)cc(N)nc2c1)c1ccc2ccccc2c1C#N [Example 7-5, N-[(6-amino-8-methyl-1,5-naphthyridin-3-yl)methyl]-N-(1-cyano-2-naphthyl)acetamide]
- pIC50 [2]: 8.52
- pKd [3]: 8.70
- pKd [4]: 8.70
- pIC50 (PRMT5/MEP50 complex [5]; [6]): 5.19
- pIC50 (PRMT5/MEP50 complex [5]; [7]): 7.69
- pIC50 (PRMT5/MEP50 complex [1]): 5.87

SMILES: Cc1cc2ncc(C(=O)N(Cc3ccc(C(F)(F)F)cn3)[C@@H]3CCCc4nccnc43)cc2nc1N [Example 10-6, (R)-6-amino-7-methyl-N-(5,6,7,8-tetrahydroquinoxalin-5-yl)-N-((5-(trifluoromethyl)pyridin-2-yl)methyl)-1,5-naphthyridine-3-carboxamide]
- pIC50 (PRMT5/MEP50 complex [1]): 6.03

SMILES: Cc1cc2[nH]c(C(=O)N(Cc3ccc(C(F)(F)F)cn3)C3CCCc4nccnc43)cc2nc1N (stereo in doubt) [Example 10-4, (R)-5-amino-6-methyl-N-(5,6,7,8-tetrahydroquinoxalin-5-yl)-N-((5-(trifluoromethyl)pyridin-2-yl)methyl)-1H-pyrrolo[3,2-b]pyridine-2-carboxamide]
- pIC50 (PRMT5/MEP50 complex [1]): 6.42

SMILES: Cc1cc2[nH]c(C(=O)N(Cc3ccc(C(F)(F)F)cn3)[C@H]3CCCc4nccnc43)cc2nc1N [Example 10-3, (S)-5-amino-6-methyl-N-(5,6,7,8-tetrahydroquinoxalin-5-yl)-N-((5-(trifluoromethyl)pyridin-2-yl)methyl)-1H-pyrrolo[3,2-b]pyridine-2-carboxamide]
- pIC50 (PRMT5/MEP50 complex [1]): 4.99

SMILES: Cc1cc2ncc(C(=O)N(Cc3ccc(Br)cn3)[C@H](C)c3ncccn3)cc2nc1N [Example 10-8, (R)-6-amino-N-((5-bromopyridin-2-yl)methyl)-7-methyl-N-(1-(pyrimidin-2-yl)ethyl)-1,5-naphthyridine-3-carboxamide]
- pIC50 (PRMT5/MEP50 complex [1]): 7.22

SMILES: Cc1cc2ncc(C(=O)N(Cc3ccc(Br)cn3)[C@@H](C)c3ncccn3)cc2nc1N [Example 10-7, (S)-6-amino-N-((5-bromopyridin-2-yl)methyl)-7-methyl-N-(1-(pyrimidin-2-yl)ethyl)-1,5-naphthyridine-3-carboxamide]
- pIC50 (PRMT5/MEP50 complex [1]): 4.79

SMILES: Cc1cc(N)nc2cc(CNC(=O)c3ccccc3)cnc12 [Example 8-1, N-[(6-amino-8-methyl-1,5-naphthyridin-3-yl)methyl]benzamide]
- pIC50 [2]: 8.05
- pKd [3]: 8.30
- pKd [4]: 7.48
- pIC50 (PRMT5/MEP50 complex [5]; [6]): 5.37
- pIC50 (PRMT5/MEP50 complex [5]; [7]): 6.38

SMILES: Cc1cc2[nH]c(-n3cnc(Br)c3)cc2nc1N [Example 13-3, 2-(4-bromoimidazol-1-yl)-6-methyl-1H-pyrrolo[3,2-b]pyridin-5-amine]
- pIC50 [2]: 5.63
- pKd [3]: 6.17
- pKd [4]: 5.70
- pIC50 (PRMT5/MEP50 complex [5]; IC50 + 2 μM MTA, histone H4 peptide, presence of 2 μM MTA): 3.88
- pIC50 (PRMT5/MEP50 complex [5]; [6]): < 3.52

SMILES: Nc1nc2cc[nH]c2cc1C1CC1 [Example 9-2, 6-cyclopropyl-1H-pyrrolo[3,2-b]pyridin-5-amine]
- pIC50 [2]: 4.61
- pKd [3]: 5.49
- pKd [4]: 4.71
- pIC50 (PRMT5/MEP50 complex [5]; [6]): 3.63
- pIC50 (PRMT5/MEP50 complex [5]; [7]): 4.01

SMILES: Cc1cc(N)nc2cc(Cc3ccccc3C#N)cnc12 [Example 2-4, 2-((6-amino-8-methyl-1,5-naphthyridin-3-yl)methyl)benzonitrile]
- pIC50 [2]: 6.00
- pKd [3]: 6.06
- pKd [4]: 5.51
- pIC50 (PRMT5/MEP50 complex [5]; [6]): < 3.52
- pIC50 (PRMT5/MEP50 complex [5]; [7]): < 3.52

SMILES: Cc1cc2ncc(C(=O)N(Cc3ccc(C(F)(F)F)cn3)[C@H]3CCCc4nccnc43)cc2nc1N [Example 10-5, (S)-6-amino-7-methyl-N-(5,6,7,8-tetrahydroquinoxalin-5-yl)-N-((5-(trifluoromethyl)pyridin-2-yl)methyl)-1,5-naphthyridine-3-carboxamide]
- pIC50 (PRMT5/MEP50 complex [1]): 4.83

SMILES: Cc1cc2[nH]c(CN3CCc4ccccc4C3=O)cc2nc1N [Example 14-6, 2-[(5-amino-6-methyl-1H-pyrrolo[3,2-b]pyridin-2-yl)methyl]-3,4-dihydroisoquinolin-1-one]
- pIC50 [2]: 8.15
- pKd [3]: 9.00
- pKd [4]: 8.22
- pIC50 (PRMT5/MEP50 complex [5]; [6]): 4.36
- pIC50 (PRMT5/MEP50 complex [5]; [7]): 6.30

SMILES: Cc1cc(N)nc2cc(CNC(=O)c3ccncn3)cnc12 [Example 7-2, N-[(6-amino-8-methyl-1,5-naphthyridin-3-yl)methyl]pyrimidine-4-carboxamide]
- pIC50 [2]: 6.50
- pKd [3]: 6.82
- pKd [4]: 5.65
- pIC50 (PRMT5/MEP50 complex [5]; [6]): < 4.00
- pIC50 (PRMT5/MEP50 complex [5]; [7]): 4.66

SMILES: Nc1nc2cc(NC(=O)c3ccccc3)[nH]c2cc1Br [Example 12-1, N-(5-amino-6-bromo-1H-pyrrolo [3,2-b]pyridin-2-yl)benzamide]
- pIC50 [2]: 5.85
- pKd [3]: 5.60
- pKd [4]: 5.20
- pIC50 (PRMT5/MEP50 complex [5]; [6]): < 4.00
- pIC50 (PRMT5/MEP50 complex [5]; [7]): < 4.00

SMILES: CC(=O)N(C)Cc1cc2nc(N)c(C)cc2[nH]1 [Example 14-4, N-((5-amino-6-methyl-1H-pyrrolo[3,2-b]pyridin-2-yl)methyl)-N-methylacetamide]
- pIC50 [2]: 6.91
- pKd [3]: 7.77
- pKd [4]: 7.10
- pIC50 (PRMT5/MEP50 complex [5]; [6]): 3.77
- pIC50 (PRMT5/MEP50 complex [5]; [7]): 5.91

SMILES: Cc1cc2[nH]c(N3CC(=O)N(C)C3=O)cc2nc1N [Example 13-4, 1-(5-amino-6-methyl-1H-pyrrolo[3,2-b]pyridin-2-yl)-3-methyl-imidazolidine-2,4-dione]
- pIC50 [2]: 4.30
- pKd [3]: 4.97
- pKd [4]: 4.51
- pIC50 (PRMT5/MEP50 complex [5]; [6]): < 3.52
- pIC50 (PRMT5/MEP50 complex [5]; [7]): < 3.52

SMILES: Cc1cc(N)nc2cc(Cc3cnn(C)c3)cnc12 [Example 2-9, 4-methyl-7-[(1-methylpyrazol-4-yl)methyl]-1,5-naphthyridin-2-amine]
- pIC50 [2]: 6.69
- pKd [3]: 6.86
- pKd [4]: 6.13
- pIC50 (PRMT5/MEP50 complex [5]; [6]): 3.61
- pIC50 (PRMT5/MEP50 complex [5]; [7]): 4.77

SMILES: Cc1cc(N)nc2cc(Cc3ccccc3Cl)cnc12 [Example 2-3, 7-(2-chlorobenzyl)-4-methyl-1,5-naphthyridin-2-amine]
- pIC50 [2]: 5.88
- pKd [3]: 5.33
- pKd [4]: 4.50
- pIC50 (PRMT5/MEP50 complex [5]; [6]): < 3.52
- pIC50 (PRMT5/MEP50 complex [5]; [7]): < 3.52
